Laboratory results published in PubChem BioAssay AID1351 (Sanford-Burnham Center for Chemical Genomics, 2008).
“And” between values parts separate entries of the source, which are not always exact repeats. Equal entries are not always repeated.

Tested on: PPC-1 thapsigargin-induced death, ATPlite luminescence, 24 h
Assay: protection of PPC-1 cells from thapsigargin, SAR follow-up, human prostate cancer PPC-1, ATP luminescence (AID 1351)
Settings: at 25 µM, stronger effect = higher value
[1] = measured here: survival at thapsigargin 15 uM
[2] = measured here: survival at thapsigargin 20 uM
[3] = survival at lower thapsigargin concentration

Structure (SMILES) | survival | survival [1] | survival [2] | survival [3]
CC1(C)CC(=O)C2=C(C1)Nc1ccccc1NC2c1ccc(-c2ccccc2)cc1 (centres undefined) | 90% | 86% | 87% | 81% and 101%
COc1ccc(C2CC(=O)C3=C(C2)Nc2ccccc2NC3c2cccc(Oc3ccccc3)c2)cc1OC (centres undefined) | 89% | 95% | 69% | 91% and 92%
CCOc1cccc(C2Nc3ccccc3NC3=C2C(=O)CC(c2ccc(OC)cc2)C3)c1 (centres undefined) | 39% | 14% | 15% | 81% and 87%
CCCOc1ccc(C2Nc3ccccc3NC3=C2C(=O)CC(c2ccc(OC)c(OC)c2)C3)cc1 (centres undefined) | 90% | 75% | 37% | 82% and 81%
O=C1CC(c2ccccc2)CC2=C1C(c1c(F)cccc1Cl)Nc1ccccc1N2 (centres undefined) | 90% | 35% | 18% | 86% and 92%
COc1ccc(C2CC(=O)C3=C(C2)Nc2ccccc2NC3c2ccccc2C(F)(F)F)cc1OC (centres undefined) | 105% | 108% | 56% | 97% and 102%
COc1ccc(C2CC(=O)C3=C(C2)Nc2ccccc2NC3c2cccc(C(F)(F)F)c2)cc1OC (centres undefined) | 94% | 99% | 69% | 93% and 94%
COc1ccc(C2CC(=O)C3=C(C2)Nc2ccccc2NC3c2cccc(Br)c2)cc1OC (centres undefined) | 85% | 102% | 59% | 94% and 100%
COc1ccc(C2CC(=O)C3=C(C2)Nc2ccccc2NC3c2cc(C)ccc2C)cc1 (centres undefined) | 88% | 83% | 32% | 85% and 91%
CCOc1cc(C2Nc3ccccc3NC3=C2C(=O)CC(c2ccc(OC)cc2)C3)cc(Cl)c1O (centres undefined) | 62% | 11% | 8.5% | 82% and 90%
CSc1ccc(C2Nc3ccccc3NC3=C2C(=O)CC(c2ccccc2)C3)cc1 (centres undefined) | 89% | 52% | 26% | 95% and 105%
